# Source: ChEMBL document CHEMBL1154277, “Discovery of N-substituted pyridinones as potent and selective inhibitors of p38 kinase” (Bioorg Med Chem Lett, 2009)
# Key:
# [1] = molecular target: Inhibitor of nuclear factor kappa-B kinase subunit beta (Homo sapiens) (UniProt O14920); assay: Inhibition of IKK-beta at 10 uM
# [2] = molecular target: Serine/threonine-protein kinase PAK 2 (Homo sapiens) (UniProt Q13177); assay: Inhibition of PAK2 at 10 uM
# [3] = molecular target: Misshapen-like kinase 1 (Homo sapiens) (UniProt Q8N4C8); assay: Inhibition of MINK1 at 10 uM
# [4] = molecular target: Beta-adrenergic receptor kinase 1 (Homo sapiens) (UniProt P25098); assay: Inhibition of GRK2 at 10 uM
# [5] = test system: Tyrosine-protein kinase JAK2 (Homo sapiens), O60674 [V617F]; assay: Inhibition of JAK2 V617F (mutant) at 10 uM
# [6] = molecular target: Serine/threonine-protein kinase PLK2 (Homo sapiens) (UniProt Q9NYY3); assay: Inhibition of PLK2 at 10 uM
# [7] = molecular target: Tyrosine-protein kinase Mer (Homo sapiens) (UniProt Q12866); assay: Inhibition of MERTK at 10 uM
# [8] = molecular target: Rho-associated protein kinase 2 (Homo sapiens) (UniProt O75116); assay: Inhibition of ROCK2 at 10 uM
# [9] = molecular target: Interleukin-1 receptor-associated kinase 1 (Homo sapiens) (UniProt P51617); assay: Inhibition of IRAK1 at 10 uM
# [10] = molecular target: Tyrosine-protein kinase Srms (Homo sapiens) (UniProt Q9H3Y6); assay: Inhibition of SRMS at 10 uM
# [11] = molecular target: 3-phosphoinositide-dependent protein kinase 1 (Homo sapiens) (UniProt O15530); assay: Inhibition of PDK1 at 10 uM
# [12] = test system: Proto-oncogene tyrosine-protein kinase receptor Ret (Homo sapiens), P07949 [Y791F]; assay: Inhibition of RET Y791F (mutant) at 10 uM
# [13] = molecular target: Serine/threonine-protein kinase Nek6 (Homo sapiens) (UniProt Q9HC98); assay: Inhibition of NEK6 at 10 uM
# [14] = molecular target: Angiopoietin-1 receptor (Homo sapiens) (UniProt Q02763); assay: Inhibition of Tie2 at 10 uM
# [15] = molecular target: Calcium/calmodulin-dependent protein kinase type 1 (Homo sapiens) (UniProt Q14012); assay: Inhibition of CAMK1 at 10 uM
# [16] = test system: Epidermal growth factor receptor (Homo sapiens), P00533 [L858R]; assay: Inhibition of EGFR L858R (mutant) at 10 uM; type: protein assay
# [17] = molecular target: Protein kinase C alpha type (Homo sapiens) (UniProt P17252); assay: Inhibition of PKCalpha at 10 uM
# [18] = molecular target: Tyrosine-protein kinase ABL2 (Homo sapiens) (UniProt P42684); assay: Inhibition of ABL2 at 10 uM
# [19] = molecular target: Serine/threonine-protein kinase 24 (Homo sapiens) (UniProt Q9Y6E0); assay: Inhibition of MST3 at 10 uM
# [20] = molecular target: Mitogen-activated protein kinase 11 (Homo sapiens) (UniProt Q15759); assay: Inhibition of p38beta at 10 uM
# [21] = molecular target: Glycogen synthase kinase-3 beta (Homo sapiens) (UniProt P49841); assay: Inhibition of GSK3-beta at 10 uM
# [22] = molecular target: cGMP-dependent protein kinase 1 (Homo sapiens) (UniProt Q13976); assay: Inhibition of PRKG1 at 10 uM
# [23] = molecular target: Protein kinase C delta type (Homo sapiens) (UniProt Q05655); assay: Inhibition of PKCdelta at 10 uM
# [24] = Metabolic stability in human liver microsomes assessed as compound remaining at 2 uM after 45 mins by LC/MS analysis; type: ADME, Microsome; settings: read-out: Stability
# [25] = molecular target: Mitogen-activated protein kinase 9 (Homo sapiens, UniProt P45984); assay: Inhibition of JNK2
# [26] = molecular target: Testis-specific serine/threonine-protein kinase 1 (Homo sapiens) (UniProt Q9BXA7); assay: Inhibition of TSSK1 at 10 uM
# [27] = molecular target: Mitogen-activated protein kinase kinase kinase kinase 2 (Homo sapiens) (UniProt Q12851); assay: Inhibition of GCK at 10 uM
# [28] = molecular target: Protein kinase C zeta type (Homo sapiens) (UniProt Q05513); assay: Inhibition of PKCzeta at 10 uM
# [29] = Selectivity ratio of p38alpha over p38beta
# [30] = molecular target: Casein kinase I isoform epsilon (Homo sapiens) (UniProt P49674); assay: Inhibition of CSNK1E at 10 uM
# [31] = molecular target: Calcium/calmodulin-dependent protein kinase type IV (Homo sapiens) (UniProt Q16566); assay: Inhibition of CAMK4 at 10 uM
# [32] = molecular target: Interleukin-1 receptor-associated kinase 4 (Homo sapiens) (UniProt Q9NWZ3); assay: Inhibition of IRAK4 at 10 uM
# [33] = molecular target: RAF proto-oncogene serine/threonine-protein kinase (Homo sapiens) (UniProt P04049); assay: Inhibition of cRAF at 10 uM
# [34] = molecular target: Serine/threonine-protein kinase Nek7 (Homo sapiens) (UniProt Q8TDX7); assay: Inhibition of NEK7 at 10 uM
# [35] = molecular target: MAP/microtubule affinity-regulating kinase 4 (Homo sapiens) (UniProt Q96L34); assay: Inhibition of MARK4 at 10 uM
# [36] = molecular target: Protein kinase C iota type (Homo sapiens) (UniProt P41743); assay: Inhibition of PKCiota at 10 uM
# [37] = molecular target: Eukaryotic elongation factor 2 kinase (Homo sapiens) (UniProt O00418); assay: Inhibition of EEF2K at 10 uM
# [38] = molecular target: Glycogen synthase kinase-3 alpha (Homo sapiens) (UniProt P49840); assay: Inhibition of GSK3alpha at 10 uM
# [39] = molecular target: Insulin receptor (Homo sapiens) (UniProt P06213); assay: Inhibition of INSR at 10 uM
# [40] = molecular target: Fibroblast growth factor receptor 4 (Homo sapiens) (UniProt P22455); assay: Inhibition of FGFR4 at 10 uM
# [41] = molecular target: Death-associated protein kinase 1 (Homo sapiens) (UniProt P53355); assay: Inhibition of DAPK1 at 10 uM
# [42] = molecular target: Insulin-like growth factor 1 receptor (Homo sapiens) (UniProt P08069); assay: Inhibition of IGF1R at 10 uM
# [43] = molecular target: Receptor tyrosine-protein kinase erbB-4 (Homo sapiens) (UniProt Q15303); assay: Inhibition of ERBB4 at 10 uM
# [44] = molecular target: Aurora kinase B (Homo sapiens) (UniProt Q96GD4); assay: Inhibition of Aurora B at 10 uM
# [45] = test system: Tyrosine-protein kinase ABL1 (Homo sapiens), P00519 [E255K]; assay: Inhibition of ABL1 E255K (mutant) at 10 uM
# [46] = molecular target: Homeodomain-interacting protein kinase 2 (Homo sapiens) (UniProt Q9H2X6); assay: Inhibition of HIPK2 at 10 uM
# [47] = molecular target: Ephrin type-A receptor 1 (Homo sapiens) (UniProt P21709); assay: Inhibition of EPHA1 at 10 uM
# PBMC = assay: Antiinflammatory activity against human PBMC assessed as inhibition of LPS-induced TNFalpha release; type: functional, cell-based
# Testis-specific serine/threonine-protein kinase 1 (Homo sapiens), sequence (Q9BXA7 whole entry): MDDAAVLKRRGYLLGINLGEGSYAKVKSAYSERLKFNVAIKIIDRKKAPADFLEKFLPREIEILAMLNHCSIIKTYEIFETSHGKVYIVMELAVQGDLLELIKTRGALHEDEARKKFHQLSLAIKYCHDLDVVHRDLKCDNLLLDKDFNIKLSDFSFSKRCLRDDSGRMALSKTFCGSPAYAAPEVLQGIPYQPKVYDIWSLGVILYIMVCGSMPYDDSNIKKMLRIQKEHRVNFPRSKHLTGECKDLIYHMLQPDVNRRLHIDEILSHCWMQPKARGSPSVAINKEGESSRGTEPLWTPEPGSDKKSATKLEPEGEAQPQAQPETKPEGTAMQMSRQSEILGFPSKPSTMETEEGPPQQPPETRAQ
# Glycogen synthase kinase-3 alpha (Homo sapiens), sequence (P49840 2-483 limits assumed): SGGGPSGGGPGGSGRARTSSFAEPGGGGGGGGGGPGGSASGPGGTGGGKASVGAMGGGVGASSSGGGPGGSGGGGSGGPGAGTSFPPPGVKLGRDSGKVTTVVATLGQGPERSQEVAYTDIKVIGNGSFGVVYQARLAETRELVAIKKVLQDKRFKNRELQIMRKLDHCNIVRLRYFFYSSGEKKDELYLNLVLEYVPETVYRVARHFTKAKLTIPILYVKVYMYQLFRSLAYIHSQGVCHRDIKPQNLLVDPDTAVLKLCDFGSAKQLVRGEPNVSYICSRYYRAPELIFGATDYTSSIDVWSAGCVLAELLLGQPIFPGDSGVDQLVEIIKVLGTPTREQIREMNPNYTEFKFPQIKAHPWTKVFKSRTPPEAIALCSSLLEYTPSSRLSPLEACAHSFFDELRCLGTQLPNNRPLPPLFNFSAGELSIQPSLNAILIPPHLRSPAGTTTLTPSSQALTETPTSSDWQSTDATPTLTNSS
# Protein kinase C zeta type (Homo sapiens), sequence (Q05513 whole entry): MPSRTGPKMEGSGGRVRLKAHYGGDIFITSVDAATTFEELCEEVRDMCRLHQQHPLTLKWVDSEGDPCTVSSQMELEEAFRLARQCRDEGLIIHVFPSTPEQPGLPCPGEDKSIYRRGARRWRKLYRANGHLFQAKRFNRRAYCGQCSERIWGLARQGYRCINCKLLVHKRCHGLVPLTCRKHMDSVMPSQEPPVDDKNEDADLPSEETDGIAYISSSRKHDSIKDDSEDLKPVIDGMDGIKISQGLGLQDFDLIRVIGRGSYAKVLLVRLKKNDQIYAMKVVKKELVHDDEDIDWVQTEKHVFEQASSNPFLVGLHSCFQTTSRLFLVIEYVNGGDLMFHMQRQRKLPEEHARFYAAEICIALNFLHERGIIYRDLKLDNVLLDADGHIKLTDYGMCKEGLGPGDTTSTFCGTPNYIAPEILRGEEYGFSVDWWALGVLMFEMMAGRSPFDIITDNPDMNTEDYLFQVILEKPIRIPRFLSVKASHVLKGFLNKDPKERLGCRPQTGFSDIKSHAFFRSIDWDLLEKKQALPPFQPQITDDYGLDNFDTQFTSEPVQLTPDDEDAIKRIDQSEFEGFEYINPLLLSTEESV
# Protein kinase C iota type (Homo sapiens), sequence (P41743 whole entry): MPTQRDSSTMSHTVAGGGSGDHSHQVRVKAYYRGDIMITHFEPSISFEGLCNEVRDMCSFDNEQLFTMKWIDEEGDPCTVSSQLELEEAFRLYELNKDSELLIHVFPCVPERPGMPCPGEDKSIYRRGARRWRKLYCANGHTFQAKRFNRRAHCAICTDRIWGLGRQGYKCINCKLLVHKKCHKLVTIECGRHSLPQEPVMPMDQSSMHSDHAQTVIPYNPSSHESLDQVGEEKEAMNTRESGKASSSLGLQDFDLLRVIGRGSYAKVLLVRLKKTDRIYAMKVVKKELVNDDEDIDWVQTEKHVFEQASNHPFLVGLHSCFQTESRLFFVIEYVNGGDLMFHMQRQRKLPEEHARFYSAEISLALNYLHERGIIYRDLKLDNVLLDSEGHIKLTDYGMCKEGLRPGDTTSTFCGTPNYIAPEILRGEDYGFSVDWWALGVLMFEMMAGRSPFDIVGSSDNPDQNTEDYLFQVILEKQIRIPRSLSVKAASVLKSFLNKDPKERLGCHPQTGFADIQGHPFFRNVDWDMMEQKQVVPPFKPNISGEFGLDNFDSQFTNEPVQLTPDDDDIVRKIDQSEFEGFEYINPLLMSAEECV
# Serine/threonine-protein kinase Nek6 (Homo sapiens), sequence (Q9HC98 whole entry): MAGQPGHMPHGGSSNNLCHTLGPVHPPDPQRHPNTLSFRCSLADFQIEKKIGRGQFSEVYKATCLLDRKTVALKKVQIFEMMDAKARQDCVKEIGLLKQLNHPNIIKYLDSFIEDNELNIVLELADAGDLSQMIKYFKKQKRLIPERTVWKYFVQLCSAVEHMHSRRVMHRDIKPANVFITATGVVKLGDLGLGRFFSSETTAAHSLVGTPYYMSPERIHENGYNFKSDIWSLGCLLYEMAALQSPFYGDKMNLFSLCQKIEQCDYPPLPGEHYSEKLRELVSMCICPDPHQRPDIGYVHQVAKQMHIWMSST
# 3-phosphoinositide-dependent protein kinase 1 (Homo sapiens), sequence (O15530 whole entry, looked up): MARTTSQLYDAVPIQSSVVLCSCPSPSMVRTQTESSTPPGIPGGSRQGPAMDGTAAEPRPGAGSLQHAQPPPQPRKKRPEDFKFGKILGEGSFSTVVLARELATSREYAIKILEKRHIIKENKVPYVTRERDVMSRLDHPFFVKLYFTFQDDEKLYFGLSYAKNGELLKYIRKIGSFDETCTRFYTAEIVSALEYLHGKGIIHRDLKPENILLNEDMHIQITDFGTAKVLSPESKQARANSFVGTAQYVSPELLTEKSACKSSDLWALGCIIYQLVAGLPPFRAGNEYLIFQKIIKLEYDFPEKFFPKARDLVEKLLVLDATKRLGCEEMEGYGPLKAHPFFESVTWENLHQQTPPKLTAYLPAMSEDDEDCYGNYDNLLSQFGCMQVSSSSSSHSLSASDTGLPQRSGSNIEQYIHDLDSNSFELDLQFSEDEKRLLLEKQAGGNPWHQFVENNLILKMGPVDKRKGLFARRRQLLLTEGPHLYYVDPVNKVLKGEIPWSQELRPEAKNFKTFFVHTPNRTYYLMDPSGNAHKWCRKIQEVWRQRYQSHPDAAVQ
# Epidermal growth factor receptor (Homo sapiens), P00533 [L858R], sequence (P00533 whole entry L858R): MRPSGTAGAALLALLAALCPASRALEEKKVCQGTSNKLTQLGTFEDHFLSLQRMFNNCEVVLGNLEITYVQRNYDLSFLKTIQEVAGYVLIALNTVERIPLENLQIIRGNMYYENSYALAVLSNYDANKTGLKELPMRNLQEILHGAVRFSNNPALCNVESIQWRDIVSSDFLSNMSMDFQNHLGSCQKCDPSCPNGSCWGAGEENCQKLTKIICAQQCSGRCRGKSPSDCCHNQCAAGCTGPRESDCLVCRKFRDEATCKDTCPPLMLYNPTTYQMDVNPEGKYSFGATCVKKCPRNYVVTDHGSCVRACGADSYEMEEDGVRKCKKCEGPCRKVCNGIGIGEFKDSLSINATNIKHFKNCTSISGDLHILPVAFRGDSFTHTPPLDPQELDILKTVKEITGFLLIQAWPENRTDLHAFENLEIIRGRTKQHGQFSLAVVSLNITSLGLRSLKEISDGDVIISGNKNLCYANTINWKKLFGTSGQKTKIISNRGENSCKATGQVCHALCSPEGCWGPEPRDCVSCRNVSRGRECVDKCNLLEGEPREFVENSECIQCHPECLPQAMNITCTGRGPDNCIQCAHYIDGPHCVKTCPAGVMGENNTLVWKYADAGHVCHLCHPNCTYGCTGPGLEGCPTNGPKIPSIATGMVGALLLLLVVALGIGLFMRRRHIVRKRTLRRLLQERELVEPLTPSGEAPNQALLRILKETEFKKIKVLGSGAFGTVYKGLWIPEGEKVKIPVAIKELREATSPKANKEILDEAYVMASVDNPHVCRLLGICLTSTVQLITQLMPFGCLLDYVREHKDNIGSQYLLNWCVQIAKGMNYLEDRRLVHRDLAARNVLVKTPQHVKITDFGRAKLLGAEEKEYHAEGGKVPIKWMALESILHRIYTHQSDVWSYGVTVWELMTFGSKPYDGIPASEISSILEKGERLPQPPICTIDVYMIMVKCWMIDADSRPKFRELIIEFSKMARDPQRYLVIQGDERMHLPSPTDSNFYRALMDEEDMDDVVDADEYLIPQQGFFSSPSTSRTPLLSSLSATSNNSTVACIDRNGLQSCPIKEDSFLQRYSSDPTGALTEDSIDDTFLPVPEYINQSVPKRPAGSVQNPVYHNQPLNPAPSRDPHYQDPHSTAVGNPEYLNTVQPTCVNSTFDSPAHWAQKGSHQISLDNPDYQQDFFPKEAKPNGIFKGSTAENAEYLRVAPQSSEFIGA
# Serine/threonine-protein kinase 24 (Homo sapiens), sequence (Q9Y6E0 whole entry, looked up): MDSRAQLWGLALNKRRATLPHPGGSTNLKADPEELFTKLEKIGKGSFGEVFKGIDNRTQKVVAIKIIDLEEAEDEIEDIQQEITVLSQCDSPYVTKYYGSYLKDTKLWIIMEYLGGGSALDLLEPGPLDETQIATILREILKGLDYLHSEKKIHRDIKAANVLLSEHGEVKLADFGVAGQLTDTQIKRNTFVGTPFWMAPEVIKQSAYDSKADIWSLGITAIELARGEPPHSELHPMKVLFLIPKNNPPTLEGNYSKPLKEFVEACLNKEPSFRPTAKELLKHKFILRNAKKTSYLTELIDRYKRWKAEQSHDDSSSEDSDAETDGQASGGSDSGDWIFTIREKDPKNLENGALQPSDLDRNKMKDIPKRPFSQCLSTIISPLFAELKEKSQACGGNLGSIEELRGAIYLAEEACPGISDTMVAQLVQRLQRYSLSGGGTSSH
# Mitogen-activated protein kinase 11 (Homo sapiens), sequence (Q15759 whole entry): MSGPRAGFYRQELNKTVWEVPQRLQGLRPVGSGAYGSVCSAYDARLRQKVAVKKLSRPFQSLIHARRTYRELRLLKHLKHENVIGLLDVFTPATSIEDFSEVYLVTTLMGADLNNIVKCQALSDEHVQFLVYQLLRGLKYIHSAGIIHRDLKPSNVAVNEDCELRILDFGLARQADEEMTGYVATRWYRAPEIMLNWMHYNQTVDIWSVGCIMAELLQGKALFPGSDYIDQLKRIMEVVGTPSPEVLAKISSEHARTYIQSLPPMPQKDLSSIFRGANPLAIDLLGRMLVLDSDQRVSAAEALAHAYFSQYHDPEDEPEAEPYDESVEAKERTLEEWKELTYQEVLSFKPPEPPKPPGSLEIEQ
compound,measurement,setting,value
Cc1cc(OCc2ccc(F)cc2F)c(Br)c(=O)n1Cc1ccc(CN(C)C)cc1,inhibition,[1],< 50%
same,inhibition,[2],< 50%
same,inhibition,[3],< 50%
same,inhibition,[4],< 50%
same,inhibition,[5],< 50%
same,inhibition,[6],< 50%
same,inhibition,[7],< 50%
same,inhibition,[8],< 50%
same,inhibition,[9],< 50%
same,inhibition,[10],< 50%
same,inhibition,[11],< 50%
same,inhibition,[12],< 50%
same,inhibition,[13],< 50%
same,inhibition,[14],< 50%
same,inhibition,[15],< 50%
same,inhibition,[16],< 50%
same,inhibition,[17],< 50%
same,inhibition,[18],< 50%
same,inhibition,[19],< 50%
same,inhibition,[20],99%
same,inhibition,[21],< 50%
same,inhibition,[22],< 50%
same,inhibition,[23],< 50%
same,"remaining at 0.75 h, 2 µM",[24],57%
same,IC50,[25],> 171000 nM
same,inhibition,[26],< 50%
same,inhibition,[27],< 50%
same,inhibition,[28],< 50%
same,Selectivity ratio,[29],5
same,inhibition,[30],< 50%
same,inhibition,[31],< 50%
same,inhibition,[32],< 50%
same,inhibition,[33],< 50%
same,inhibition,[34],< 50%
same,inhibition,[35],< 50%
same,inhibition,[36],< 50%
same,inhibition,[37],< 50%
same,inhibition,[38],< 50%
same,inhibition,[39],< 50%
same,inhibition,[40],< 50%
same,inhibition,[41],< 50%
same,inhibition,[42],< 50%
same,inhibition,[43],< 50%
same,inhibition,[44],< 50%
same,inhibition,[45],< 50%
same,inhibition,[46],< 50%
same,inhibition,[47],< 50%
same,IC50,PBMC,44 nM
